Measured values reported in PubChem BioAssay (NCI).
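Values below derive from 48-hour exposures of cells grown in 96-well plates, with endpoints linearly interpolated between the two concentrations bracketing the appropriate inhibition level. GI50: concentration for 50% inhibition of growth. TGI is the concentration that stops growth completely.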

Columns and labels:
Assay in all cases: inhibition of tumour cell growth, NCI panel, 48 h
[1] = tested on: PC-3 prostate
[2] = tested on: MDA-MB-435
[3] = tested on: HL-60(TB) leukemia
[4] = tested on: OVCAR-3 ovarian
[5] = tested on: SR leukemia
[6] = tested on: 786-0 renal
[7] = tested on: SK-MEL-28 melanoma
[8] = tested on: UACC-257 melanoma
[9] = tested on: OVCAR-5 ovarian
[10] = tested on: HOP-92 NSCLC
[11] = tested on: SN12C renal
[12] = tested on: SF-268 CNS
[13] = tested on: SW-620 colon
[14] = tested on: UACC-62 melanoma
[15] = tested on: HCT-116 colon
[16] = tested on: MCF7 breast
[17] = tested on: A498 renal
[18] = tested on: ACHN renal
[19] = tested on: RPMI-8226 leukemia
[20] = tested on: M14 melanoma
[21] = tested on: CCRF-CEM leukemia
[22] = tested on: SF-539 CNS
[23] = tested on: TK-10 renal
[24] = tested on: UO-31 renal
[25] = tested on: RXF 393 renal
[26] = tested on: MDA-MB-231 breast
[27] = tested on: OVCAR-8 ovarian
[28] = tested on: BT-549 breast
[29] = tested on: LOX IMVI melanoma
[30] = tested on: SNB-19 CNS
[31] = tested on: HCT-15 colon
[32] = tested on: U251 CNS
[33] = tested on: K-562 leukemia
[34] = tested on: DU-145 prostate
[35] = tested on: SK-MEL-2 melanoma
[36] = tested on: IGROV1 ovarian
[37] = tested on: COLO 205 colon
[38] = tested on: SK-MEL-5 melanoma
[39] = tested on: NCI-H522 lung
[40] = tested on: HT29 colon
[41] = tested on: SF-295 CNS
[42] = tested on: EKVX NSCLC
[43] = tested on: NCI-H460 lung
[44] = tested on: A549 NSCLC
[45] = tested on: MOLT-4 leukemia
[46] = tested on: HOP-62 NSCLC
[47] = tested on: HCC-2998 colon
[48] = tested on: CAKI-1 renal
[49] = tested on: SNB-75 CNS
[50] = tested on: OVCAR-4 ovarian
[51] = tested on: SK-OV-3 ovarian
[52] = tested on: KM12 colon
[53] = tested on: NCI/ADR-RES ovarian
[54] = tested on: HS 578T breast
[55] = tested on: NCI-H23 lung

## C=C1C[C@@H]2CC[C@@]34C[C@H]5O[C@H]6[C@@H](O3)[C@H]3O[C@H](CC[C@@H]3O[C@H]6[C@@H]5O4)CC(=O)C[C@@H]3[C@@H](OC)[C@@H](C[C@H](O)CN)O[C@H]3C[C@H]3O[C@@H](CC[C@@H]1O2)C[C@@H](C)C3=C
[1]
  GI50: < 10 nM
[2]
  GI50: < 10 nM
  TGI: < 10 nM
[3]
  GI50: < 10 nM
  TGI: < 14.5 nM
[4]
  GI50: < 10 nM
  TGI: 21.9 nM
[5]
  GI50: < 10 nM
  TGI: > 100000 nM
[6]
  GI50: 76.1 nM
  TGI: > 100000 nM
[7]
  TGI: > 100000 nM
[8]
  GI50: > 65800 nM
  TGI: > 100000 nM
[9]
  GI50: < 10 nM
  TGI: > 100000 nM
[10]
  GI50: 73.4 nM
  TGI: 79400 nM
[11]
  GI50: < 10 nM
  TGI: > 100000 nM
[12]
  GI50: 304 nM
  TGI: > 100000 nM
[13]
  GI50: < 10 nM
  TGI: > 100000 nM
[14]
  GI50: < 10 nM
  TGI: > 100000 nM
[15]
  GI50: < 10 nM
  TGI: > 100000 nM
[16]
  GI50: < 10 nM
  TGI: > 100000 nM
[17]
  GI50: < 11.9 nM
  TGI: 45.6 nM
[18]
  GI50: 158 nM
  TGI: > 100000 nM
[19]
  GI50: < 10 nM
[20]
  GI50: < 10.6 nM
  TGI: > 81900 nM
[21]
  GI50: < 10 nM
  TGI: > 100000 nM
[22]
  GI50: < 10 nM
  TGI: 16.6 nM
[23]
  GI50: 13900 nM
  TGI: > 100000 nM
[24]
  GI50: 1340 nM
  TGI: > 100000 nM
[25]
  GI50: < 10 nM
  TGI: > 100000 nM
[26]
  GI50: < 10 nM
  TGI: > 53500 nM
[27]
  GI50: < 15.3 nM
  TGI: > 100000 nM
[28]
  GI50: < 16.7 nM
  TGI: > 37500 nM
[29]
  GI50: < 10 nM
  TGI: 990 nM
[30]
  GI50: < 10 nM
  TGI: > 100000 nM
[31]
  GI50: 326 nM
  TGI: > 100000 nM
[32]
  GI50: < 10 nM
  TGI: > 100000 nM
[33]
  GI50: < 10 nM
  TGI: > 100000 nM
[34]
  GI50: < 10 nM
  TGI: > 100000 nM
[35]
  GI50: < 10 nM
  TGI: > 100000 nM
[36]
  GI50: < 10 nM
  TGI: > 100000 nM
[37]
  GI50: < 10 nM
  TGI: 65.2 nM
[38]
  GI50: < 13.5 nM
  TGI: 1110 nM
[39]
  GI50: < 10 nM
  TGI: 11800 nM
[40]
  GI50: < 10 nM
  TGI: > 100000 nM
[41]
  GI50: < 10 nM
  TGI: 839 nM
[42]
  GI50: < 10 nM
  TGI: > 100000 nM
[43]
  GI50: < 10 nM
  TGI: > 100000 nM
[44]
  GI50: < 10 nM
  TGI: > 100000 nM
[45]
  GI50: < 10 nM
  TGI: > 100000 nM
[46]
  GI50: < 11.5 nM
  TGI: > 100000 nM
[47]
  GI50: < 10 nM
  TGI: > 100000 nM
[48]
  GI50: 35.8 nM
  TGI: > 100000 nM
[49]
  GI50: < 10 nM
  TGI: > 100000 nM
[50]
  GI50: 1030 nM
  TGI: > 100000 nM
[51]
  TGI: > 100000 nM
[52]
  GI50: < 10 nM
  TGI: > 100000 nM
[53]
  GI50: 2690 nM
  TGI: > 100000 nM
[54]
  GI50: < 10 nM
  TGI: > 100000 nM
[55]
  GI50: < 10 nM
  TGI: > 100000 nM
